# Measured values as given in PMC9298352, “Design, Synthesis and Structural Analysis of Glucocerebrosidase Imaging Agents” (Chemistry (Weinheim an Der Bergstrasse, Germany), 2021).
# What was measured:
# rhGBA = biological target: T1, rhGBA (Homo sapiens, UniProt P04062); test: Time-dependent labelling of rhGBA with galacto-ABP 7 and gluco-ABP 8 (SDS-PAGE, Cy5 fluorescence); type: biochemical; conditions: rhGBA 700 nM, ABP 150 nM
# T1 construct: made in house; host or cells: insect-baculovirus expression vector system (BEVS)
# T1 sequence (P04062 40-536): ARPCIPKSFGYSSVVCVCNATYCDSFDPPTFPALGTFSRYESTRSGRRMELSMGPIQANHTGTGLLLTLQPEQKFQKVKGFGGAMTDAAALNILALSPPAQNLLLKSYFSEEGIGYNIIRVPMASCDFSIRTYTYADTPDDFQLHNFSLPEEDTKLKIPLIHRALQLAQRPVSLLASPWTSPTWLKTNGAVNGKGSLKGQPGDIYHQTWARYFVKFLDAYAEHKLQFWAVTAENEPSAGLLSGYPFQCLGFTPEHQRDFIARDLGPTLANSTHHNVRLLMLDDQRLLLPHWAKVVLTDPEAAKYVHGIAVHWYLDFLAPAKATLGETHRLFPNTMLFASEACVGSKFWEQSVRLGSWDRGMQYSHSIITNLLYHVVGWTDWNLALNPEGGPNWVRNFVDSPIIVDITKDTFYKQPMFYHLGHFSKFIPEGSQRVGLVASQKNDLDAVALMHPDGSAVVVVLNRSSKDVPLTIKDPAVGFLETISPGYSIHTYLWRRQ
# Experimental: To rapidly investigate for cross‐reactivity with galacto‐configured cyclophellitol aziridines, time‐dependent labelling assays of rhGBA with galacto‐configured Cy5‐tagged aziridine ABP 7 were performed (Figure 3).
# Figure 3 Time dependent labelling of rhGBA (700 nM) by Cy5‐tagged galacto‐ABP 7 (150 nM) after 2, 5, 10, 30 and 60 mins showing that labelling reaches saturation at 30 mins. In comparison, labelling by Cy5‐tagged gluco‐ABP 8 (150 nM) reaches saturation in 2mins. […] ABP labelled rhGBA (60 kDa) visualized by Cy5 fluorescent readout.
# rhGBA produced in BEVS[58] was prepared at 700 nM in 150 mM McIlvaine buffer pH 5.2 (containing 0.1 % (v/v) Triton X‐100 and 0.2 % (w/v) sodium taurocholate) and ABP 7 or ABP 8 were added to 150 nM. The reactions were incubated at 37 °C and aliquots were taken at 2, 5, 10, 30 and 60 mins. The aliquots were immediately denatured with Laemmli (x3) sample buffer by heating at 95 °C for 5 minutes. The samples were resolved by electrophoresis in 10 % SDS‐PAGE gels, running at 200 V for ∼50 minutes. Wet slab gels were scanned on fluorescence using an AmershamTyphoon 5 Imager (GE Healthcare) with λEX 635 nm; λEM >665 nm.
# GBA = conditions: read-out: apparent IC50 for GBA; cited from earlier work
SMILES,time to saturation of rhGBA labelling (Figure 3 legend) (rhGBA) [min],"time to saturation of rhGBA labelling (rhGBA; pH 5.2, 37 °C) [min]","time within which rhGBA is labelled (rhGBA; pH 5.2, 37 °C) [min]",IC50 (GBA) [nM]
C[N+]1=C(C=CC=CC=C2N(CCCCCC(=O)NCc3ccc(C4=C5C(C=NN4)C4CC(C(=O)NCCCCCCN6C7C(O)C(O)C(O)C(CO)C76)C5C4)cc3)c3ccccc3C2(C)C)C(C)(C)c2ccccc21 (stereo not shown) [ABP 7],30,≤ 30,≤ 2,–
"OC[C@@H]1[C@@H](O)[C@H](O)[C@@H](O)[C@@H]2N[C@H]12 [compound 2, cyclophellitol aziridine]",–,–,–,500
